The record followed here is patent US20250265708A1, “METHOD AND SYSTEM FOR CONTRACTILITY ASSESSMENT OF CARDIAC ORGANOIDS BASED ON PARTICLE IMAGE VELOCIMETRY, PROGRAM FOR THE SAME, AND RECORDING MEDIUM STORING PROGRAM THEREOF” (Research & Business Foundation SUNGKYUNKWAN UNIVERSITY, priority 2024, published 2025).

The assay concerns cardiac organoid. Description: Drug reaction experiment: PIV-based contractility analysis of cardiac organoid treated with isoprenaline. In kind it is cell-based, human. From the text: Specifically, isoprenaline, which is a widely used […] (inotropic agent), is used to assess contractility of a cardiac organoid in response to drugs. […] As a result, the contraction-relaxation velocity profile and beating image of the cardiac organoids before drug treatment may be confirmed as shown in FIG. 10A and FIG. 10B, after drug treatment as shown in FIG. 10C and FIG. 10D, and 1 day after drug withdrawal as shown in FIG. 10E and FIG. 10F.

[1] abbreviates: cardiac organoid, after treating for 15 minutes with isoprenaline, vs before drug treatment.

Consider `CC(C)NCC(O)c1ccc(O)c(O)c1` (stereo not shown) [isoprenaline], for which the “heart beating of the organoid” value (1 day after drug withdrawal) is listed as “returned to before the drug treatment”. Under setting [1], the average contraction duration entry is recorded as “reduced” and the “contraction time to peak” value is “reduced”. Moreover, where the note is “cardiac organoid, after treating for 15 minutes with isoprenaline, vs before drug treatment (24.3±3.22 BPM)”, the heart beating rate entry was “increased significantly”.
